Values of other authors as cited in paper PMC6839502 (Journal of Alzheimer's Disease, 2019).
Entries after “also recorded” stand apart in the source; their conditions may differ.

Experiments:
BACE1 over BACE 2 = conditions: fluorescence polarization (FP) assay; cited from earlier work
pigmented C57BL/6J mice = conditions: long-term toxicology studies / 3 weeks of treatment in pigmented C57BL/6J mice; cited from earlier work
CYP3A4/5 = conditions: in vitro experiments; ref data on file; cited from earlier work

C[C@H]1C[C@H]2CSC(N)=N[C@@]2(c2nc(NC(=O)c3ccc(OC(F)F)cn3)cs2)CO1 [PF-06751979]
Selectivity for BACE1 over BACE2 (BACE1 over BACE 2): 6.4 fold
Hair color (pigmentation) change (pigmented C57BL/6J mice): not observed; also recorded: did not reveal pigmentation changes
CYP3A4/5 inhibition (CYP3A4/5): weak metabolism-dependent inhibitor
